Results reported in US6906205B2, “Spiro and dispiro 1,2,4-trioxolane antimalarials” (Medicines for Malaria Venture MMV, priority 2002, dated 2005).
≈ marks a conversion by molar mass, not a printed value.

Key:
[1] = system: ANKA strain of P. berghei; test: single dose STI in vivo screen in infected mice; set-up: species or system Plasmodium berghei; conditions: for Activity (%) po / Activity (%) sc / Activity (%) SSVpo / Activity (%) 3 mg/kg SSV po / Activity (%) 10 mg/kg SSV po: percent reduction in parasitemia day 3 post-infection; for Activity (%) po / Survival (days) po: single 10 mg/kg po in 3% ethanol and 7% Tween 80; for Activity (%) po / Activity (%) sc / Activity (%) SSVpo: mice; for Activity (%) sc / Survival (days) sc: single 10 mg/kg sc in 3% ethanol and 7% Tween 80; for Activity (%) SSVpo: single po dose in standard suspending vehicle (SSV); for Survival (days) po / Survival (days) sc / Survival (days) SSVpo: untreated control 5.6 ± 0.3; for Survival (days) SSVpo: single po dose in SSV; for Activity (%) 10 mg/kg SSV po / Survival (days) 10 mg/kg SSV po: single 10 mg/kg po in SSV
How it was run: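 Groups of 3-5 Moro SPF or NMRI mice infected with the ANKA strain of P. berghei received a single dose of trioxolane on day one post-infection. The compound was given in 3% ethanol and 7% Tween 80 or in SSV (0.5% w/v CMC, 0.5% v/v benzyl alcohol, 0.4% v/v Tween 80, 0.9% w/v sodium chloride in water). Antimalarial activity was scored as percent reduction in parasitemia on day three and as survival time versus untreated controls. Survival to day 30 counted as cure.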

[2] = system: Schistosoma mansoni adult schistosomes (49-day-old); test: effect on adult schistosomes (49-day-old) in mice; assay type: in vivo; conditions: for % reduction of adult worms growth at day 49 after per os application of 400 mg/kg, TWR (%) / adult worms at day 49, per os 400 mg/kg, DEAD WORM (%): single 400 mg/kg per os
Description: Mice were infected with 100 Schistosoma mansoni cercariae […]. Each group was treated per os with OZ compounds at single doses of 200, 400, and 600 mg/kg. […] All groups were killed 4 weeks after treatment and the liver and intestine were removed and separated. The liver and intestine were compressed and alive male and female worms could be seen and counted.

[3] = system: P. falciparum K1 strain (Thailand resistant to chloroquine); test: semiautomated microdilution assay, [3H]-hypoxanthine incorporation, K1 strain; assay type: cell-based, Plasmodium falciparum; conditions: K1 strain, 72 h incubation
How it was run: (§1)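 Compounds were tested against intraerythrocytic parasites taken from asynchronous stock cultures, using semiautomated microdilution. IC50 values were estimated by logit regression analysis.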

[4] = system: Schistosoma mansoni 21-day-old schistosomules; test: effect on 21-day-old schistosomules in mice; assay type: in vivo; conditions: single 200 mg/kg per os, female mice
Description: All groups were killed 4 weeks after treatment and the liver and intestine were removed and separated. The liver and intestine were compressed and alive male and female worms could be seen and counted. The effect of the compounds was evaluated by mean total and female worm burden.

[5] = system: P. falciparum NF54 strain (sensitive to standard antimalarials); test: semiautomated microdilution assay, [3H]-hypoxanthine incorporation, NF54 strain; assay type: cell-based, Plasmodium falciparum; conditions: NF54 strain, 72 h incubation
How it was run: as §1

SMILES | % reduction of adult worms growth at day 49 after per os application of 400 mg/kg, TWR (%) [2] | adult worms at day 49, per os 400 mg/kg, DEAD WORM (%) [2] | IC50 (ng/ml) K1 [3] [ng/mL] | % reduction of schistosomule growth at day 21 after per os application of 200 mg/kg, FWR (%) [4] [%] | % reduction of schistosomule growth at day 21 after per os application of 200 mg/kg, TWR (%) [4] [%] | IC50 (ng/ml) NF54 [5] [ng/mL] | Activity (%) po [1] | Activity (%) sc [1] | Survival (days) po [1] | Survival (days) sc [1] | also measured
O=C(O)C1CCC2(CC1)OOC1(O2)C2CC3CC(C2)CC1C3 (centres unmarked) [OZ71] | 0% | 16% | 4.5 (≈ 0.0146 µM) | 85 | 91 | 3.7 (≈ 0.012 µM) | – | – | – | – | Activity (%) po ([1]; 10 mg/kg): 98%; Activity (%) sc ([1]; 10 mg/kg): 97%; Activity (%) SSVpo [1]: 98%; Survival (days) po ([1]; 10 mg/kg): 7.3 days; Survival (days) sc ([1]; 10 mg/kg): 8.3 days; Survival (days) SSVpo [1]: 6.7 days
O=C(O)C1CCN(C(=O)C[C@H]2CC[C@]3(CC2)OO[C@]2(O3)C3CC4CC(C3)CC2C4)CC1 [OZ312] | 16% | 9% | 19 (≈ 0.0438 µM) | 93 | 94 | 27 (≈ 0.0623 µM) | – | – | – | – | Activity (%) 3 mg/kg SSV po ([1]; single 3 mg/kg po in SSV): 13%; Activity (%) 10 mg/kg SSV po [1]: 43%; Survival (days) 10 mg/kg SSV po [1]: 7.2 days
C1CC2(CCN1)OOC1(O2)C2CC3CC(C2)CC1C3.Cl (centres unmarked) [OZ80] | – | – | 0.15 | 75 | 79 | 0.34 | 59% | 84% | 6.3 days | 7.7 days | % reduction of adult worms growth at day 49 after per os application of 200 mg/kg, TWR (%) ([2]; single 200 mg/kg per os): 0%; adult worms at day 49, per os 200 mg/kg, DEAD WORM (%) ([2]; single 200 mg/kg per os): 3%
O=C1CCC2(CC1)OOC1(CCCCCCCCCCC1)O2 [OZ21] | 0/0% | 0/0% | 14 (≈ 0.0451 µM) | 20 | 18 | 25 (≈ 0.0805 µM) | 0/NA/0% | 0/NA/0% | 5.0 days | 6.0 days | –
O=C1CC2CC3(CC2C1)OOC1(O3)C2CC3CC(C2)CC1C3 (centres unmarked) [OZ12] | 14% | 0% | – | 79 | 78 | – | 75% | 99.8% | 7.0 days | 9.3 days | –
CC1(C)COC2(CCC3(CC2)OOC2(CC(C)(C)CC(C)(C)C2)O3)OC1 [OZ36] | 0/0% | 0/0% | 24 (≈ 0.0651 µM) | 12 | 16 | 62 (≈ 0.168 µM) | 0/NA/0% | 0/NA/0% | 5.7/NA/5.7 days | 5.7/NA/5.7 days | –
CCCC1CCC2(CC1)OOC1(O2)C2CC3CC(C2)CC1C3 (centres unmarked) [OZ25] | 46% | 34% | 1.1 (≈ 0.00359 µM) | 84 | 86 | 2.1 (≈ 0.00685 µM) | 99.9% | 99.97% | 8.4 days | 16.5 days | Activity (%) SSVpo [1]: 96%; Survival (days) SSVpo [1]: 7.2 days
O=C(O)C(=O)NC[C@H]1CC[C@]2(CC1)OO[C@]1(O2)C2CC3CC(C2)CC1C3 [OZ360] | 0/0% | 0/0% | 58 (≈ 0.159 µM) | 13 | 17 | 59 (≈ 0.161 µM) | – | – | – | – | Activity (%) 3 mg/kg SSV po ([1]; single 3 mg/kg po in SSV): 0%; Activity (%) 10 mg/kg SSV po [1]: 38%; Survival (days) 3 mg/kg SSV po ([1]; single 3 mg/kg po in SSV): 6.2 days; Survival (days) 10 mg/kg SSV po [1]: 6.8 days
O=C1CN(C(=O)C[C@H]2CC[C@]3(CC2)OO[C@]2(O3)C3CC4CC(C3)CC2C4)CCN1 [OZ296] | 1% | 13% | 0.60 (≈ 0.00148 µM) | 85 | 85 | 0.89 (≈ 0.0022 µM) | – | – | – | – | Activity (%) 3 mg/kg SSV po ([1]; single 3 mg/kg po in SSV): 90%; Survival (days) 10 mg/kg SSV po [1]: 10.0 days
O=C1C2C3CC4C5C3C1C5C1(OOC3(O1)C1CC5CC(C1)CC3C5)C42 (centres unmarked) [OZ14] | 0/0% | 0/0% | 91 (≈ 0.267 µM) | 0 | 7 | > 100 | 23% | 96% | 6.0 days | 7.7 days | –
O=C1CN(C[C@H]2CC[C@]3(CC2)OOC2(O3)C3CC4CC(C3)CC2C4)CCN1 (some centres unmarked) [OZ285] | 17% | 22% | 1.3 (≈ 0.00345 µM) | 85 | 86 | 1.8 (≈ 0.00478 µM) | – | – | – | – | Activity (%) 3 mg/kg SSV po ([1]; single 3 mg/kg po in SSV): 72%; Survival (days) 10 mg/kg SSV po [1]: 8.7 days
NCCOc1ccc([C@H]2CC[C@]3(CC2)OO[C@]2(O3)C3CC4CC(C3)CC2C4)cc1 [OZ323] | 20% | 23% | 0.85 (≈ 0.00213 µM) | 97 | 95 | 1.1 (≈ 0.00275 µM) | – | – | – | – | –
O=C(C1CCCCC1)N1CC(=O)N2CCc3ccccc3C2C1 (centres unmarked) [PRAZIQUANTEL, praziquantel, reference compound] | 96/96% | 96/96% | – | 0 | 0 | – | – | – | – | – | adult worms at day 49, per os 600 mg/kg, DEAD WORM (%) ([2]; single 600 mg/kg per os): 100/100%
C1CCCCCC2(CCCCC1)OOC1(O2)C2CC3CC(C2)CC1C3 (centres unmarked) [OZ20] | 0/0% | 0/0% | 15 (≈ 0.043 µM) | 0 | 0 | 20 (≈ 0.0574 µM) | – | – | – | – | –
c1ccc2c(c1)COC1(CCC3(CC1)OOC1(O3)C3CC4CC(C3)CC1C4)OC2 (centres unmarked) [OZ31] | 4/4% | 4/4% | – | 63 | 60 | – | 99.95% | 99.95% | 9.0 days | 17.7 days | Activity (%) SSVpo [1]: 90%; Survival (days) SSVpo [1]: 7.3 days
